Assay results reported in patent US10338077B2, “Methods for determining drug efficacy for treatment of cancer ration of cereblon associated proteins” (Celgene Corporation, priority 2015, dated 2019).

Experiments:
Assay type in all cases: cell-based, human
[1] = tested on: cell lines 1-4, 7, 10-11, and 13-23; test: Lenalidomide sensitivity of cell types of Example 2, other cell lines
Excerpt: (§1) Twenty-three types of cells from, e.g., ATL cell lines, lymphoma cell lines, leukemia cell lines, healthy peripheral blood mononuclear cells (PBMCs), and human T-lymphotropic virus 1 (HTLV-1) carrier's PBMCs are employed in this example.

NCI-H929 = test: CellTiter cell proliferation assay, NCI-H929 (multiple myeloma, responsive control); conditions: NCI-H929 multiple myeloma control cell line
Excerpt: (§2) ATL cell lines Hut102, ED40515, S1T, OATL4, and OATL9, HTLV-1 transformed cell lines MT-2, MT-4, and C8166, PTCL cell line Hut78, other T-cell Jurkat, MOLT4, HL60, and monocyte cell line K562 are laboratory stocks (Dr. Hidekatsu Iha, Oita University, and Prof. Kazuhiro Morishita, The University of Miyazaki). ATL cell lines ST1, KOB, KK1, and SO4 are gift from Dr. Hiroo Hasegawa, Nagasaki University). NCI-H929 and RPMI-8226 were purchased from American Type Culture Collection (ATCC: Manassas, Va.). Each cell line was maintained with RPMI-1640 culture media supplemented with 15% fetal bovine serum (FBS: Equitech-Bio Inc., Kerrville, Tex.), penicillin G (50 U/ml), and streptomycin (50 μg/ml). Antibiotics were purchased from Sigma-Aldrich Co. LLC. (St. Louis, Mo.).
(§3) Cells were plated in 24-well plates at 5×10^4 cells per 1.5 mL RPMI1640 and kept in 5% CO2 incubator for 24 hours (cell number should reach 1×10^5). […] After 10 minutes incubation at room temperature, the reaction mixture in 96-well plates was read by Glomax luminometer (Promega). Average values and standard deviation were obtained from four independent experiments.
(§4) Relative CellTiter values compared to untreated control cells at day 0 were plotted. […] In addition, OATL4 and KOB display 30% more reductions (see Table 2).

[2] = tested on: cell line 6 (ATL cell line); test: Lenalidomide sensitivity of cell types of Example 2, cell line 6
Excerpt: as §1

MOLT4 = test: CellTiter cell proliferation assay, MOLT4; conditions: MOLT-4; see Table 2
Excerpt: as §2, §3, §4

KOB = test: CellTiter cell proliferation assay, KOB (ATL cell line); conditions: see Table 2
Excerpt: as §2, §3, §4

[3] = tested on: cell line 5 (ATL cell line); test: Lenalidomide sensitivity of cell types of Example 2, cell line 5
Excerpt: as §1

RPMI-8226 = test: CellTiter cell proliferation assay, RPMI-8226 (multiple myeloma, irresponsive control); conditions: RPMI-8226 multiple myeloma control cell line
Excerpt: as §2, §3, §4

OATL4 = test: CellTiter cell proliferation assay, OATL4 (ATL cell line); conditions: see Table 2
Excerpt: as §2, §3, §4

MT-4 = test: CellTiter cell proliferation assay, MT-4 (HTLV-1 transformed)
Excerpt: as §2, §3, §4

HuT78 = test: CellTiter cell proliferation assay, HuT78 (HTLV-1 negative T-cell line); conditions: 10 μM lenalidomide for three days
Excerpt: as §2, §3
Relative CellTiter values compared to untreated control cells at day 0 were plotted. […]
(§5) The CellTiter Assay was performed the same way as in Section 6.3, Example 3. Standard deviation was calculated from four experiments.

Hut102 = test: CellTiter cell proliferation assay, Hut102 (ATL cell line)
Excerpt: as §2, §3, §4, §5

[4] = tested on: cell line 12 (ATL cell line); test: Lenalidomide sensitivity of cell types of Example 2, cell line 12
Excerpt: as §1

[5] = Homo sapiens, HuT-102, read-out: remaining activities (cell proliferation activity)

Q: How did the sensitivity to lenalidomide [1] turn out when `Nc1cccc2c1CN(C1CCC(=O)NC1=O)C2=O` (centres unmarked) [lenalidomide, 1-oxo-2-(2,6-dioxopiperidin-3-yl)-4-aminoisoindoline] was run?
A: intense tolerance

Q: What about the “response against lenalidomide treatment (FIG. 3)” value (NCI-H929) of the same compound?
A: sensitive

Q: What about the sensitivity to lenalidomide [2] of the same compound?
A: weak/moderate-sensitive

Q: And the growth inhibition (MOLT4)?
A: 30%

Q: What about the growth inhibition (KOB) of the same compound?
A: 30%

Q: And the “reductions of cell proliferation activity” value (KOB)?
A: ≥ 30%

Q: What about the sensitivity to lenalidomide [3] of the same compound?
A: highly-sensitive

Q: And the “response against lenalidomide treatment (FIG. 3)” value (RPMI-8226)?
A: insensitive

Q: What about the “reductions of cell proliferation activity” value (OATL4) of the same compound?
A: ≥ 30%

Q: What about the sensitivity to lenalidomide (MT-4) of the same compound?
A: moderate sensitive

Q: What about the “time-dependent cell growth (remaining growth activities, FIG. 4)” value (HuT78) of the same compound?
A: almost unchanged

Q: What about the activity at 0.1 µM (Hut102; [5]) of the same compound?
A: 64.2%

Q: What about the activity at 1 µM (Hut102; [5]) of the same compound?
A: 68.3%

Q: What about the activity at 10 µM (Hut102; [5]) of the same compound?
A: 46%

Q: And the activity at 100 µM (Hut102; [5])?
A: 53%

Q: What about the “time-dependent cell growth (remaining growth activities, FIG. 4)” value (Hut102; HuT102, 10 μM lenalidomide for three days) of the same compound?
A: significant decrease in cell growth

Q: What about the sensitivity to lenalidomide [4] of the same compound?
A: weak/moderate-sensitive
